Data on 14 compounds can be found in patent US20230406837A1, “SULFAMATE MODULATORS OF PIN1 ACTIVITY AND USES THEREOF” (Yeda Research and Development Co., Ltd., priority 2022, published 2023).

Entries after “also recorded” stand apart in the source; their conditions may differ. A value given as a limit tells only on which side of the number the result lay.

A short description of data set [1]: GSH consumption (reactivity) assay by LC/MS. The settings on record: for covalent bond formation with GSH: assay conditions or temperatures up to 37° C. for 24 h; for reactivity to GSH relative to chloroacetamide (1a): 5 mM GSH, 200 μM electrophile, pH 8, 14° C.
A short description of data set [2]: Buffer stability assay (hydrolysis by LC/MS). Particulars: for hydrolysis in PBS buffer (FIG. 13): 100 μM, pH 8, 37° C. for four days; for hydrolysis in PBS buffer: pH 8, 37° C., after 2 days. The format is physicochemical. On the procedure:
FIG. 8: Buffer stability of model compounds. […] The percentage of hydrolysis was quantified using LC/MS at a wavelength of 220 nm.
FIG. 13: Sulfonate and sulfamate compounds. […] For compounds Sulfopin, 4a, and 4b, spectra at 220 nm were taken to show the peaks. […] “#” refers to hydrolysis product “*” refers to unidentified peak.
Reaction mixtures were kept at 37° C. with shaking.

The target of data set [3] is T1, Pin1 (Homo sapiens, UniProt Q13526). As to the kind of experiment: In-vitro Pin1 covalent labeling by intact protein LC/MS. It is filed as binding. Also noted: The catalytic domain of Pin1 (2 μM) in 20 mM Tris, 75 mM NaCl, pH 7.5 was incubated with 2 μM Sulfamate; made in house. The settings on record: 2 μM compound, 2 μM Pin1, pH 7.5, 1 h, 25° C. On the procedure: Pin1 was expressed and purified as previously reported^38. The catalytic domain of Pin1 (2 μM) in 20 mM Tris, 75 mM NaCl, pH 7.5 was incubated with 2 μM Sulfamate (4a-4g) for 1 h at 25° C.
The reaction mixtures, at room temperature for various times, were injected into the LC/MS. For data analysis, the raw spectra were deconvoluted using a 20000:40000 Da (For Pin1, 10000:30000) window and 1 Da resolution. The labeling percentage for a compound was determined as the labeling of a specific compound (alone or together with other compounds) divided by the overall detected protein species.
Initially, these compounds (4a-4g; 2 μM) were incubated with Pin1 (2 μM; […] Tris buffer; pH 7.5, 1 h; 25° C.) to check covalent labeling by intact protein MS (FIG. 11B,C; FIG. 10).
Target sequence in this assay (Q13526 52-163 limits assumed): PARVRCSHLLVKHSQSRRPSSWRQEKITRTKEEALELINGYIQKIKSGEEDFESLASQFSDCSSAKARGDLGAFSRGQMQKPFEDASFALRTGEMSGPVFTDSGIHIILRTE

The test system of another data set is Mino cells. In words: In situ proteomic labeling with alkyne probes, in-gel fluorescence. The format is cell-based. Particulars: 2 h. The text has this: FIGS. 5A-5C: α-sulfamate acetamide 1a-aj, and 2a-2c can show up to two orders of magnitude less reactivity towards GSH than chloroacetamide. FIG. 5A: Chemical structures of model α-sulfamate/sulfonate/sulfone acetamides. FIG. 5B: Half-life (t1/2) of the model compounds (1a-1j) assessed by GSH consumption assay via LC/MS (FIG. 4B). FIG. 5C: In situ proteomic labeling with alkyne probes (2a-2c). […] A band that is selectively detected only by compound 2a is indicated by *.
Sulfamate acetamides show attenuated and tunable proteomic reactivity. To assess proteomic selectivity in cells, two sulfamate acetamides (2a and 2b) and a chloroacetamide (2c) with an alkyne functionality have been synthesized (FIG. 3 and FIG. 4A). Mino cells were treated for two hours with either DMSO or 2a-c. Then, the cells were lysed, labeled the alkynes via copper-catalyzed “click chemistry” (CuAAC) with TAMRA-azide, and imaged the adducts via in-gel fluorescence (FIG. 4C). Similar to their reactivity pattern in the GSH reactivity assay, these compounds labeled various amounts of proteins under cellular conditions.

A short description of data set [4]: DTNB thiol reactivity assay. The format is physicochemical. The settings on record: 200 μM compound, pH 7.4, 37° C. On the procedure:
The compound 5,5′-dithio-bis(2-nitrobenzoic acid) (DTNB; 50 μM) was incubated with 200 μM tris(2-carboxyethyl)phosphine (TCEP) in 20 mM sodium phosphate buffer pH 7.4 and 150 mM NaCl for 5 min at room temperature, to obtain TNB^−2. […] UV absorbance was acquired every 15 min for 7 h. The assay was performed in a 384-well plate using a Tecan Spark 10M plate reader. […] Compounds were measured in triplicate. The data were fitted to a second-order reaction equation such that the rate constant (K) is the slope of ln([A][B0]/[B][A0]), where [A0] and [B0] are the initial concentrations of the compound (200 μM) and TNB^−2 (100 μM), respectively, and [A] and [B] are the remaining concentrations as a function of time as deduced from spectrometric measurements. Linear regression using Prism was performed to fit the rate against the first 7 h of measurements.

The target of the next data set is T2, Pin1 Cys113 (Homo sapiens, UniProt Q13526).
T2 construct: endogenous in cells
In words: Competitive isoTOP-ABPP in PATU-8988T cells. It is filed as cell-based. The settings on record: for peptides labeled with an H/L ratio >2: out of about 3,000 cysteines identified. As for the experimental part: FIGS. 11A-11E: Sulfamate acetamides as potent and selective Pin1 inhibitors. FIG. 11A. Chemical structures of the sulfonate and sulfamate compounds (4a-4g). FIG. 11B. Deconvoluted LC/MS spectrum for Pin1 (2 μM) incubated with 4 g at pH 7.5, 25° C., 1 h. The adduct mass corresponds to a labeling event in which the sulfamate group was released. FIG. 11C. Percent of Pin1 labeling (2 μM) with the probes (4a-4g; 2 μM; y-axis) compared to their intrinsic thiol reactivity as assessed by their rate of reaction in a DTNB assay (x-axis). FIG. 11D. Cellular engagement of the Sulfamates. OCI-AML2 cells were treated with DMSO, Sulfopin or sulfamate compounds (4c, 4d, 4g) at 0.5 and 2.5 μM concentration for 4 hours. Lysates were then incubated with a Sulfopin desthiobiotin (DTB) probe (1 μM), pulled down using streptavidin beads before running a western blot against Pin1. FIG. 11E. IsoDTB ABPP experiment with sulfopin and sulfamate compound 4d. […] The labeled peptides were pull-down with streptavidin beads and analysed by LC/MS/MS (similar protocol to BTK, see FIG. 521; n=4). Proteins in the box have a heavy to light (H/L) ratio ≥2. Only peptides detected in three out of four repetitions are presented.

Data set [5] has as its target T1, Pin1. In words: Kinetics of Pin1 binding (KI and Kinact) by LC-MS. Also noted: made in house; kinact: unit not given here. Particulars: for Ki: read-out: K1 value (KI). The text has this: The reaction was monitored by LC-MS. FIGS. 17B and 17D. The rate constants as extrapolated from FIGS. 17A and 17C, respectively, as a function of the concentration of sulfopin and 4d.
Target sequence in this assay (Q13526 whole entry, the tested form may be a part): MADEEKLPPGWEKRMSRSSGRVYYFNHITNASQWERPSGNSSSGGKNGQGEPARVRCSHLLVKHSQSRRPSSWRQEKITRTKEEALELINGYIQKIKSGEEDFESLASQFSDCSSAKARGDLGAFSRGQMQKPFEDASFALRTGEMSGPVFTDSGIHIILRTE

The nature of data set [6]: Metabolic stability in liver microsomes. The format is in vitro ADME. Particulars: LC/MS/MS. As for the experimental part:
FIG. 14: Sulfamates compounds show high metabolic stability. Compounds (Sulfopin, 4d, 4e, and 4g) were incubated in liver microsomes and injected to LC/MS/MS at indicated time points. The peak intensities of the compounds were measured in UV spectra.
In general terms: Liver microsomes are a subcellular fraction often used to study metabolism.

Where [7] appears, read: Pin1 0.5 μM, 100 mM Tris buffer pH 7.4, 14° C.

T2 sequence (Q13526 whole entry): as the sequence (Q13526 whole entry, the tested form may be a part) above

With `CS(=O)(=O)CC(=O)NCc1ccccc1` [Compound 1i, N-benzyl-2-(methylsulfonyl)acetamide], in data set [1], the “covalent bond formation with GSH” value was “did not form a covalent bond with GSH”.
Consider `CNS(=O)(=O)OCC(=O)NCc1ccccc1` [Compound 1d, 2-(benzylamino)-2-oxoethyl Methylsulfamate], for which the “reactivity to GSH relative to chloroacetamide (1a)” value in data set [1] was “an order of magnitude less reactivity”.
As for `CC(C)(C)CN(C(=O)COS(C)(=O)=O)C1CCS(=O)(=O)C1` (centres unmarked) [Compound 4a, 2-((1,1-dioxidotetrahydrothiophen-3-yl)(neopentyl)amino)-2-oxoethyl Methanesulfonate], in data set [2], the “hydrolysis in PBS buffer (FIG. 13)” value was found to be 15% and the “hydrolysis in PBS buffer” value is on record as 15%. Besides, the “Pin1 labeling by intact protein MS” value at Pin1 [3] came out at 18%.
In the case of `C#Cc1ccc(NC(=O)COS(=O)(=O)NCc2ccccc2)cc1` [Compound 2a, 2-((4-ethynylphenyl)amino)-2-oxoethyl Benzylsulfamate], in the data set with Mino cells, the “proteomic reactivity (proteins labeled)” value is listed as “enriching more proteins; also recorded: labeled a distinct protein that was not labeled by the chloroacetamide”.
In the case of `O=C(COS(=O)(=O)Nc1ccccc1)N(CC1CCCCC1)C1CCS(=O)(=O)C1` (centres unmarked) [Compound 4g, 2-((cyclohexylmethyl)(1,1-dioxidotetrahydrothiophen-3-yl)amino)-2-oxoethyl Phenylsulfamate], in data set [4], the “thiol reactivity relative to Sulfopin” value is on record as “slightly higher reactivity”. Moreover, at Pin1 [3], the “Pin1 labeling by intact protein MS” value was over 95%.
On to `CC(C)(C)CN(C(=O)COS(=O)(=O)Nc1ccc(Br)cc1)C1CCS(=O)(=O)C1` (centres unmarked) [Compound 4e, 2-((1,1-dioxidotetrahydrothiophen-3-yl)(neopentyl)amino)-2-oxoethyl (4-bromophenyl)sulfamate], for which the “thiol reactivity relative to Sulfopin” value in data set [4] is on record as “lower thiol reactivity than Sulfopin”.
For `C#Cc1ccc(NC(=O)COS(=O)(=O)Nc2ccccc2)cc1` [Compound 2b, 2-((4-ethynylphenyl)amino)-2-oxoethyl Phenylsulfamate], the “proteomic reactivity (proteins labeled)” value in the data set with Mino cells is on record as “low reactivity”.
On the same count and under the same terms, the entry for `C#Cc1ccc(NC(=O)CCl)cc1` [Compound 2c, 2-chloro-N-(4-ethynylphenyl)acetamide] is “enriching more proteins”.
In the case of `CC(C)(C)CN(C(=O)COS(=O)(=O)NCc1ccccc1)C1CCS(=O)(=O)C1` (centres unmarked) [Compound 4c, 2-((1,1-dioxidotetrahydrothiophen-3-yl)(neopentyl)amino)-2-oxoethyl Benzylsulfamate], the “thiol reactivity relative to Sulfopin” value in data set [4] was “lower thiol reactivity than Sulfopin”. Also, at Pin1 [3], the “Pin1 labeling by intact protein MS” value stood at 56%.
In general, Ki refers to the equilibrium dissociation constant of an inhibitor or competing ligand from its target. As for `CC(C)(C)CN(C(=O)COS(=O)(=O)Nc1ccccc1)C1CCS(=O)(=O)C1` (centres unmarked) [Compound 4d, 2-((1,1-dioxidotetrahydrothiophen-3-yl)(neopentyl)amino)-2-oxoethyl Phenylsulfamate], the “thiol reactivity relative to Sulfopin” value in data set [4] is recorded as “lower thiol reactivity than Sulfopin”. For the same compound, at Pin1 Cys113, the “competition ratio (H/L) of Pin1 Cys113” value is recorded as “highest competition ratio” and the “peptides labeled with an H/L ratio >2” value is given as “six”. For the same compound, the “binding affinity to Pin1 relative to sulfopin” value at Pin1 [5] (KI of 4d versus sulfopin) is on record as “five-times better K1 value; also recorded: five-fold higher binding affinity”. Moreover, at Pin1 [5] (setting [7]), the kinact is 2.48 and the Ki amounted to 43.6 µM.
As for `CC(C)(C)CN(C(=O)CCl)C1CCS(=O)(=O)C1` (centres unmarked) [Sulfopin, reference compound], in data set [2], the “hydrolysis in PBS buffer (FIG. 13)” value is recorded as 30% and the “hydrolysis in PBS buffer” value was determined as 30%. At Pin1 Cys113, the “competition ratio (H/L) of Pin1 Cys113” value is listed as “highest competition ratio; also recorded: more complete target engagement” and the “peptides labeled with an H/L ratio >2” value is recorded as “six”. Further, the metabolic stability entry in data set [6] was “good metabolic stability”. Further, the Ki at Pin1 [5] (setting [7]) was 217 µM. The “Pin1 labeling by intact protein MS” value at Pin1 [3] was 59%.
For `O=C(CS(=O)(=O)c1ccccc1)NCc1ccccc1` [Compound 1j, N-benzyl-2-(phenylsulfonyl)acetamide], in data set [1], the “covalent bond formation with GSH” value is on record as “did not form a covalent bond with GSH”.
Turning to `CNS(=O)(=O)OCC(=O)N(CC(C)(C)C)C1CCS(=O)(=O)C1` (centres unmarked) [Compound 4b, 2-((1,1-dioxidotetrahydrothiophen-3-yl)(neopentyl)amino)-2-oxoethyl Methylsulfamate], the “Pin1 labeling by intact protein MS” value at Pin1 [3] turned out to be 16%.
For `O=C(COS(=O)(=O)NCc1ccccc1)NCc1ccccc1` [Compound 1e, 2-(benzylamino)-2-oxoethyl Benzylsulfamate], in data set [1], the “reactivity to GSH relative to chloroacetamide (1a)” value is reported as “an order of magnitude less reactivity”.
